Eight molecules from ChEMBL document CHEMBL3045876, “Molecular modeling studies and synthesis of novel quinoxaline derivatives with potential anti-cancer activity as inhibitors of methionine synthase” (Med Chem Res, 2013) can be followed below.

Assay [1] has as its target Methionine synthase (Homo sapiens) (UniProt Q99707). The experiment in a line: Inhibition of methionine synthase (unknown origin) by cell free assay. Also on record: concentration or dose not given beside the values. The following applies: concentration not given here.
For a further assay, the system named is PC-3. The experiment in a line: Cytotoxicity against Homo sapiens (human) PC3 cells after 96 hr by MTT assay. The following applies: PC-3, 96 h. The class given is functional, cell-based.
The subject of a further assay is MCF7. In words: Cytotoxicity against Homo sapiens (human) MCF7 cells after 96 hr by MTT assay. The class given is functional, cell-based. The following applies: MCF7, 96 h. Background: Formazan colour is commonly taken as a measure of viable cells.

The inhibition is the change of the read-out against control, counted positive when it falls. By IC50 is commonly meant the concentration that inhibits the measured activity by half.

Methionine synthase (Homo sapiens), sequence (Q99707 whole entry): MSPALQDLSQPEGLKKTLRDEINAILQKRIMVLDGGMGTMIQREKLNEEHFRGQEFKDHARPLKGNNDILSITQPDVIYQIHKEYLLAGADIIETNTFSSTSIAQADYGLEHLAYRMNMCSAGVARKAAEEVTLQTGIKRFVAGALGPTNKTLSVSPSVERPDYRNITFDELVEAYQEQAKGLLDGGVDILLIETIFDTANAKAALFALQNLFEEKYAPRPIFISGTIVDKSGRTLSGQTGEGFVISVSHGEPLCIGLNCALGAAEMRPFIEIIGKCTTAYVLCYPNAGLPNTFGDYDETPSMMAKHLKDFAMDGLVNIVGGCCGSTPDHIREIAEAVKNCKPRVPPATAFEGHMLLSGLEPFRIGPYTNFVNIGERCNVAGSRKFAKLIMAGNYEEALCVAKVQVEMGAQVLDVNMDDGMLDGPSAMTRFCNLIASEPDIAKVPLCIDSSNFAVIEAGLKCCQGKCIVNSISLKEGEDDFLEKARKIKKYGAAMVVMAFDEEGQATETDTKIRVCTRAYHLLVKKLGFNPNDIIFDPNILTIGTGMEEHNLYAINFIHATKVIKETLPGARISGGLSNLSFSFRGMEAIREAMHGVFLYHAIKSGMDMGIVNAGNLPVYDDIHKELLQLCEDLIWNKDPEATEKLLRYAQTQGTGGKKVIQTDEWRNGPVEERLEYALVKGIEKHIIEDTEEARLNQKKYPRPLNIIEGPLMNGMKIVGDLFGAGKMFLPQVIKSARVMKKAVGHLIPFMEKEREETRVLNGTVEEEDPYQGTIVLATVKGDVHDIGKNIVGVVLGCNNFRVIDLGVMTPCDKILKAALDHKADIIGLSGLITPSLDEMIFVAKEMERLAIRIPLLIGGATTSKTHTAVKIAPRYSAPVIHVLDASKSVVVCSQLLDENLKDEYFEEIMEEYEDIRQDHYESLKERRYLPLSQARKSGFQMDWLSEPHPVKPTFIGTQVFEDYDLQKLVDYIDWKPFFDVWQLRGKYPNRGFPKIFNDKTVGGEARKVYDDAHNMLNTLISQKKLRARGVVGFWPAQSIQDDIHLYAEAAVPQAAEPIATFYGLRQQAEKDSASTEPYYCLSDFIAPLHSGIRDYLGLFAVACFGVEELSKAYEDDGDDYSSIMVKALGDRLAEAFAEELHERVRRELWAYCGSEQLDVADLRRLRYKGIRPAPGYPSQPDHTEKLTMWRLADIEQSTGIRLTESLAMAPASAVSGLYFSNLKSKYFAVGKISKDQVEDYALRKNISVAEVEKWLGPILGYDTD

The molecule `Cc1ccc(NCc2cnc3cc([N+](=O)[O-])ccc3n2)cc1` had an inhibition in assay [1] of 65%. Moreover, the results for the IC50 in the assay on PC-3 and in the assay on MCF7 were 57 µM and 68 µM, respectively.
With `CNC(=O)c1ccc(NCc2cnc3cc([N+](=O)[O-])ccc3n2)cc1`, the IC50 in the assay on PC-3 amounted to 49 µM; with MCF7, 47 µM.
As to `Cc1cccc(NCc2cnc3cc([N+](=O)[O-])ccc3n2)c1`, the inhibition in assay [1] turned out to be 45%. In addition, the IC50 in the assay on PC-3 amounted to 77 µM; in the assay with MCF7, 79 µM.
In assay [1], `O=[N+]([O-])c1ccc2nc(CCl)cnc2c1` gave an inhibition of 55%. Besides, the values for the IC50 in the assay with PC-3 and in the assay on MCF7 were 70 µM and 66 µM, respectively.
The corresponding values for `O=C(O)c1ccc(NCc2cnc3cc([N+](=O)[O-])ccc3n2)cc1` are 89%, 45 µM and 53 µM.
Take `CCNC(=O)c1ccc(NCc2cnc3cc([N+](=O)[O-])ccc3n2)cc1`: the concentration for half-maximal inhibition (IC50) in the assay with PC-3 was found to be 66 µM; with MCF7, 49 µM.
In assay [1], `O=[N+]([O-])c1ccc2nc(CNc3ccccc3)cnc2c1` gave an inhibition of 65.9%. The IC50 in the assay with PC-3 came to 56 µM; with MCF7, 61 µM.
As for `O=[N+]([O-])c1ccc2nc(CNc3ccc(Cl)cc3)cnc2c1`, the inhibition in assay [1] was 45%. The IC50 in the assay with PC-3 was 70 µM; in the assay with MCF7 it was 75 µM.
